The structures appear in SMILES notation.

The target of one data set is T1, 5-HT1A receptors (Homo sapiens, UniProt P08908).
T1 construct: expressed in transfected cells; host or cells: HEK293
T1 sequence (P08908 1-422): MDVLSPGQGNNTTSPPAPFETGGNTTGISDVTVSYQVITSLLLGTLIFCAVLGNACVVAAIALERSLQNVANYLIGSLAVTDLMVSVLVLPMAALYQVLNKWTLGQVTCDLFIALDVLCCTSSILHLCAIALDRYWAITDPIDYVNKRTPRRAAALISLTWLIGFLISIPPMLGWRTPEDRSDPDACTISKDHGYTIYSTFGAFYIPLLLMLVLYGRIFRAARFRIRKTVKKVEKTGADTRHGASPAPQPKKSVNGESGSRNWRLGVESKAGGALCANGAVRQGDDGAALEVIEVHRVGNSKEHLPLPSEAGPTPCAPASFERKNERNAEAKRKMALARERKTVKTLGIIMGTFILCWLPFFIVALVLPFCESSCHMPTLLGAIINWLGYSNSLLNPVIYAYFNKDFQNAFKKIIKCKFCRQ
In words: Receptor binding studies, displacement of (3H)-8-OH-DPAT on membranes of HEK293 cells expressing 5-HT1A receptors. The settings on record: 0.2 nM (3H)-8-OH-DPAT, 22° C. The procedure: (§1) HEK293 cells which expressed 5-HT1A or 5-HT1B receptors were cultivated in RPMI 1640 (Life Technologies, Eggenstein, Germany) comprising 10% fetal calf serum. All the culture media were supplemented with 2 mM L-glutamine and 400 mg/l Geneticin G418 (Life Technologies). The cells were grown in a moist atmosphere with 6% CO2 at 37° C. and detached with a buffer comprising 0.0004% EDTA, 0.02% EGTA, 2.68 mM KCl, 1.47 mM KH2PO4, 6.46 mM Na2HPO4 and 136.9 mM NaCl (pH 7.4). The harvested cells were washed once with cold phosphate-buffered Dulbecco's saline solution (PBS), centrifuged (200×g; 10 minutes) and adjusted to a cell density of 10^8 cells per cryovial. After renewed centrifugation, the pellets were resuspended in 1 ml of ice-cold dissolving buffer (5 mM Tris/HCl (pH 7.4), 10% glycerol) and incubated at 4° C. for 30 minutes. The suspension was then centrifuged at 900×g for 10 minutes, the supernatants were removed, and the pellets were stored in liquid nitrogen until used.
(§2) Initially, the affinities of the radio ligands ((^3H)-8-OH-DPAT for 5-HT1A receptors; or (^3H)-5-CT for 5-HT1B receptors) were calculated from saturation plots where triplicate determinations of the specific and nonspecific binding were carried out for each test concentration. Each sample was composed of 50 μg of cellular proteins of the particular membrane preparation, the radio ligand with or without competing compound (5-HT) in a total volume of 0.5 ml. A buffer consisting of 50 mM Tris/HCl (pH 7.4) and 5 mM CaCl2 was used. Incubation was at 22° C. for 9 minutes.
(§3) For Ki determinations, the test compounds were titrated three times in displacement experiments against a fixed concentration of radio ligand ((0.2 nM (^3H)-8-OH-DPAT; or 0.2 nM (^3H)-5-CT). The other test conditions corresponded to those described for the saturation experiments. The total and the nonspecific binding (10 μM 5-HT as competitor of 5-HT1A and 100 μM for 5-HT1B) was determined for each experimental series.
(§4) The incubation for binding and displacement was terminated by filtering and washing the samples on glass fiber filters (GF/B) using a Skatron 7200 cell harvester (Zinsser, Frankfurt, Germany). The sample filters were transferred into scintillation vials comprising 5 ml of scintillator (Ultima Gold XR) and agitated for 1 hour, and then measured in a liquid scintillation counter. Saturation and competition plots were calculated with the aid of a computer program based on LIGAND (Mundson, P J and Reodbard, D; Anal. Biochem. 107, 220 (1980)).

The next data set deals with T2, 5-HT1B receptors (Homo sapiens, UniProt P28222).
T2 construct: expressed in transfected cells; host or cells: HEK293
T2 sequence (P28222 whole entry): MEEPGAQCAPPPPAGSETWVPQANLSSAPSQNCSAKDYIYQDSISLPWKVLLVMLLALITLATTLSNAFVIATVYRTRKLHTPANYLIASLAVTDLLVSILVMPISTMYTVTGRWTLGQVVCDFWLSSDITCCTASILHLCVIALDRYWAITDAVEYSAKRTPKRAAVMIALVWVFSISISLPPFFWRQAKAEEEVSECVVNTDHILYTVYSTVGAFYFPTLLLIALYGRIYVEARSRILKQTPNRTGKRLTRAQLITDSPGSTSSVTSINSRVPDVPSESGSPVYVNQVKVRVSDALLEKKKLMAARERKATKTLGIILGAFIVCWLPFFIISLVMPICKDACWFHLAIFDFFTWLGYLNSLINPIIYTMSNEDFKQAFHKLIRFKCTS
In words: Receptor binding studies, displacement of (3H)-5-CT on membranes of HEK293 cells expressing 5-HT1B receptors. As to conditions: 0.2 nM (3H)-5-CT, 22° C. The procedure:
as §1, §2, §3, §4

Data set [1] relates to serotonin release in the cortex. The settings on record: after systemic administration; cited from earlier work.

Broadly, the Ki is a measure of affinity in units of concentration, obtained from inhibition or displacement. As usually defined, the melting point is the temperature, or range, at which the solid turns liquid. In turn, `CN1CCc2c(sc3ncn(CCN4CCN(c5nsc6ccccc56)CC4)c(=O)c23)C1` [Example 4, 3-{2-[4-(1,2-Benzisothiazol-3-yl)piperazin-1-yl]ethyl}-7-methyl-5,6,7,8-tetrahydropyrido[4′,3′:4,5]thieno[2,3-d]pyrimidin-4(3H)-one] yielded a melting point of 82 to 84 °C. Further, the Ki at 5-HT1A receptors is 1.4 nM. The Ki at 5-HT1B receptors turned out to be 0.9 nM.
Consider `CN1CCc2c(sc3ncn(CCN4CCN(c5nsc6cccc(Cl)c56)CC4)c(=O)c23)C1` [Example 5, 3-{2-[4-(4-Chloro-1,2-benzisothiazol-3-yl)piperazin-1-yl]ethyl}-7-methyl-5,6,7,8-tetrahydropyrido[4′,3′:4,5]thieno[2,3-d]pyrimidin-4(3H)-one], for which the melting point is 88 to 89 °C.
Consider `CN1CCc2c(sc3ncn(CCN4CCN(c5nc6cc(C(F)(F)F)ccc6s5)CC4)c(=O)c23)C1` [Example 6, 7-Methyl-3-(2-{4-[5-(trifluoromethyl)-1,3-benzothiazol-2-yl]piperazin-1-yl}ethyl)-5,6,7,8-tetrahydropyrido[4′,3′:4,5]thieno[2,3-d]pyrimidin-4(3H)-one], for which the melting point lay within 166 to 167 °C.
`CN1CCc2c(sc3ncn(CCN4CCN(c5nc6ccc(Cl)cc6s5)CC4)c(=O)c23)C1` [Example 7, 3-{2-[4-(6-Chloro-1,3-benzothiazol-2-yl)piperazin-1-yl]ethyl}-7-methyl-5,6,7,8-tetrahydropyrido[4′,3′:4,5]thieno[2,3-]pyrimidin-4(3H)-one] registered a melting point of 160 to 162 °C.
Regarding `CN1CCc2c(sc3ncn(CCN4CCN(c5nc6ccccc6[nH]5)CC4)c(=O)c23)C1` [Example 8, 3-{2-[4-(1H-Benzimidazol-2-yl)piperazin-1-yl]ethyl}-7-methyl-5,6,7,8-tetrahydropyrido[4′,3′:4,5]thieno[2,3-d]pyrimidin-4(3H)-one], the melting point was 227 to 229 °C.
Turning to `Cc1ccc2onc(N3CCN(CCn4cnc5sc6c(c5c4=O)CCN(C)C6)CC3)c2c1` [Example 9, 7-Methyl-3-{2-[4-(5-methyl-1,2-benzisoxazol-3-yl)piperazin-1-ium-1-yl]ethyl}-4-oxo-3,4,5,6,7,8-hexahydropyrido[4′,3′:4,5]thieno[2,3-d]spyrimidin-7-ium dichloride], the Ki came to 6.2 nM on 5-HT1A receptors and 4.5 nM on 5-HT1B receptors.
For `CN1CCc2c(sc3ncn(CCN4CCN(c5nc6ccccc6o5)CC4)c(=O)c23)C1` [Example 10, 3-{2-[4-(1,3-Benzoxazol-2-yl)piperazin-1-yl]ethyl}-7-methyl-5,6,7,8-tetrahydropyrido[4′,3′:4,5]thieno[2,3-d]pyrimidin-4(3H)-one], the melting point lay in the range of 130 to 132 °C.
`CN1CCc2c(sc3ncn(CCN4CCN(c5nc6ccccc6s5)CC4)c(=O)c23)C1` [Example 11, 3-{2-[4-(1,3-Benzothiazol-2-yl)piperazin-1-yl]ethyl}-7-methyl-5,6,7,8-tetrahydropyrido[4′,3′:4,5]thieno[2,3-d]pyrimidin-4(3H)-one] yielded a melting point of 151 to 153 °C.
Turning to `CN1CCc2c(sc3ncn(CCN4CCN(c5n[nH]c6ccccc56)CC4)c(=O)c23)C1` [Example 13, 3-{2-[4-(1H-Indazol-3-yl)piperazin-1-yl]ethyl}-7-methyl-5,6,7,8-tetrahydropyrido[4′,3′:4,5]thieno[2,3-d]pyrimidin-4(3H)-one], the values for the Ki at 5-HT1A receptors and on 5-HT1B receptors were 11.5 nM and 3.5 nM, respectively.
The corresponding values for `COc1ccc2onc(N3CCN(CCn4cnc5sc6c(c5c4=O)CCN(C)C6)CC3)c2c1` [Example 15, 4-(5-Methoxy-1,2-benzisoxazol-3-yl)-1-[2-(7-methyl-4-oxo-5,6,7,8-tetrahydropyrido[4′,3′:4,5]thieno[2,3-d]pyrimidin-3(4H)-yl)ethyl]piperazin-1-ium chloride] are 13.7 nM and 7.9 nM.
In the case of `COc1ccc2c(c1)c(C1CCN(CCn3cnc4sc5c(c4c3=O)CCN(C)C5)CC1)cn2C` [Example 16, 4-(5-Methoxy-1-methyl-1H-indol-3-yl)-1-[2-(7-methyl-4-oxo-5,6,7,8-tetrahydropyrido[4′,3′:4,5]thieno[2,3-d]pyrimidin-3(4H)-yl)ethyl]piperidinium chloride], the results for the Ki on 5-HT1A receptors and on 5-HT1B receptors were 1.3 nM and 2.3 nM, respectively.
For the compound `CN1CCc2c(sc3ncn(CCN4CC=C(c5c[nH]c6ccccc56)CC4)c(=O)c23)C1` [Example 20, 3-{2-[4-(1H-Indol-3-yl)-3,6-dihydropyridin-1(2H)-yl]ethyl}-7-methyl-5,6,7,8-tetrahydropyrido[4′,3′:4,5]thieno[2,3-d]pyrimidin-4(3H)-one], the Ki at 5-HT1A receptors stood at 1.2 nM; on 5-HT1B receptors, 1 nM.
Turning to `CN1CCc2c(sc3ncn(CCN4CC=C(c5c[nH]c6ncccc56)CC4)c(=O)c23)C1` [Example 21, 1-[2-(7-Methyl-4-oxo-5,6,7,8-tetrahydropyrido[4′,3′:4,5]thieno[2,3-d]pyrimidin-3(4H)-yl)ethyl]-4-(1H-pyrrolo[2,3-b]pyridin-3-yl)-1,2,3,6-tetrahydropyridinium acetate], the Ki is 14.6 nM on 5-HT1A receptors and 1 nM on 5-HT1B receptors.
`CN1CCc2c(sc3ncn(CCN4CCC(c5cc(-c6cccs6)[nH]n5)CC4)c(=O)c23)C1` [Example 24, 1-[2-(7-Methyl-4-oxo-5,6,7,8-tetrahydropyrido[4′,3′:4,5]thieno[2,3-d]pyrimidin-3(4H)-yl)ethyl]-4-[5-(2-thienyl)-1 H-pyrazol-3-yl]piperidinium chloride]: the Ki at 5-HT1A receptors stood at 98.3 nM; at 5-HT1B receptors, 286 nM.
As to `CN1CCc2c(sc3ncn(CCN4CC=C(c5csc6ccccc56)CC4)c(=O)c23)C1` [Example 28, 3-{2-[4-(1-Benzothien-3-yl)-3,6-dihydropyridin-1 (2H)-yl]ethyl}-7-methyl-5,6,7,8-tetrahydropyrido[4′,3′:4,5]thieno[2,3-d]pyrimidin-4(3H)-one], the figures for the Ki on 5-HT1A receptors and at 5-HT1B receptors were 1.3 nM and 2 nM, respectively.
As for `CN1CCc2c(sc3ncn(CCN4CCN(c5snc6ccccc56)CC4)c(=O)c23)C1` [Example 31, 4-(2,1-Benzisothiazol-3-yl)-1-[2-(7-methyl-4-oxo-5,6,7,8-tetrahydropyrido[4′,3′:4,5]thieno[2,3-d]pyrimidin-3(4H)-yl)ethyl]piperazin-1-ium chloride], the Ki was determined as 42.7 nM on 5-HT1A receptors and 24.3 nM on 5-HT1B receptors.
For `COc1ccc2[nH]cc(C3=CCN(CCn4cnc5sc6c(c5c4=O)CCN(C)C6)CC3)c2c1` [Example 32, 3-{2-[4-(5-methoxy-1H-indol-3-yl)-3,6-dihydropyridin-1(2H)-yl]ethyl}-7-methyl-5,6,7,8,-tetrahydropyrido[4′,3′:4,5]thieno[2,3-d]pyrimidin-4(3H)-one], the Ki at 5-HT1A receptors came to 0.5 nM; at 5-HT1B receptors, 0.6 nM.
`COc1ccc(NC(=O)c2ccc(-c3ccc(-c4noc(C)n4)cc3C)cc2)cc1N1CCN(C)CC1` [GR 127 935]: the “serotonin release in the cortex” value in data set [1] is reported as “reduced”.
